Test results: article PMC3066593, “Liposomal Tumor Targeting in Drug Delivery Utilizing MMP-2- and MMP-9-Binding Ligands” (Journal of Drug Delivery, 2010)
Positions of bridges follow the written chain, without caps; N, C: chain ends. Residues, ends and D or L forms follow the SMILES beside them.

Columns and labels:
[1] = Mouse body weight during efficacy study; format: in vivo, NMRI nude mice; details: at day 9; 9 mg/kg doxorubicin equivalents at day 0, 3 and 6; mean of 9 mice; weights returned to initial levels one week later
Description: (§1) Therapeutic efficacy studies were conducted in subcutaneous A2780 xenografts using doxorubicin, administered as either CTT2-SL liposomes or Caelyx. Commercially available nonliposomal (“free”) drug (i.e., doxorubicin) and saline dilution buffer were used as treatment controls. A2780 ovarian cancer cells (5×10^6 in 100 μl PBS) were injected subcutaneously into the posterior flanks of NMRI nude mice (n = 40). Mice received i.v. bolus injections of CTT2-SL liposome, Caelyx, doxorubicin, and buffer. CTT2-SL liposomes were injected when tumor volumes reached 65 mm^3, while administration of Caelyx and doxorubicin to different xenograft mice was offset in time from CTT2-SL liposomes by 3 and 6 days, respectively. Doxorubicin, CTT2-SL liposomes, and Caelyx were injected at doses of 9 mg/kg each. Mouse body weights were monitored throughout the study period.

A2780 xenografts = assay: Therapeutic efficacy (survival) in subcutaneous A2780 xenografts; format: in vivo, NMRI nude mice; details: 9 mg/kg i.v.
Description: as §1

[2] = Hepatic accumulation of 125I-labelled peptides in normal mice; format: in vivo
Description: Radiolabeling of peptides and all liposomal formulations with iodine-125 (^125I) was performed using the IODOGEN (Pierce, Rockford, IL). The CTT2-PEG3400-DSPE peptide was labeled with ^125I using iodogen as a catalyst. 5 MBq of Na125I (Amersham, Buckinghamshire, England) in 0.5 ml PBS was added to a tube containing 10 μg dried iodogen and 100 μg CTT2-PEG3400-DSPE peptide construct. The mixture was incubated for 20 min at room temperature. The ^125I-bound particle fractions were purified by elution from PD-10 columns. The activity of the peptide was determined in a gamma counter (Cobra II, Packard Instruments).
Following single i.v. tracer doses of purified ^125I-CTT1-peptide (∼40 μg/mouse), ^125I-CTT2-peptide (∼40 μg/mouse), or CTT2-micelles (200 μg/mouse; 200 kBq), the percentage of the injected dose per gram of tissue (%ID/g) values, corrected for radioactive decay to the time of injection, were measured in tumor and major tissues/organs (heart, liver, kidney, lung, muscle, brain, spleen, and tumor) by sacrificing groups of normal mice or mice bearing serous ovarian hindleg xenografts (OV-90) at specified time points.

COc1cccc2c1C(=O)c1c(O)c3c(c(O)c1C2=O)C[C@@](O)(C(=O)CO)C[C@@H]3O[C@H]1C[C@H](N)[C@H](O)[C@H](C)O1 [Doxorubicin, doxorubicin]
Maximum body weight loss [1]: about 10%
Day at which live mice with tumor size exceeding 1000 mm^3 were sacrificed (A2780 xenografts): 24 days

CC(C)C[C@@H]1NC(=O)[C@H]([C@@H](C)O)NC(=O)[C@H](Cc2ccccc2)NC(=O)CNC(=O)[C@H](Cc2c[nH]c3ccccc23)NC(=O)[C@H](Cc2c[nH]cn2)NC(=O)[C@H]([C@@H](C)O)NC(=O)[C@H]([C@@H](C)O)NC(=O)[C@@H](NC(=O)CNC(=O)[C@H](Cc2c[nH]cn2)NC(=O)[C@H](Cc2ccc(O)cc2)NC(=O)[C@H](CC(N)=O)NC(=O)[C@H](CCC(=O)O)NC(=O)[C@H](CCCNC(=N)N)NC(=O)CN)CSSC[C@@H](C(N)=O)NC1=O [CTT2-peptide] (H-GRENYHGCTTHWGFTLC-NH2; disulfide 8-17)
Hepatic clearance ([2]; normal mice, compared with CTT1-peptide): more rapid hepatic clearance

CC(C)C[C@@H]1NC(=O)[C@H]([C@@H](C)O)NC(=O)[C@H](Cc2ccccc2)NC(=O)CNC(=O)[C@H](Cc2c[nH]c3ccccc23)NC(=O)[C@H](Cc2c[nH]cn2)NC(=O)[C@H]([C@@H](C)O)NC(=O)[C@H]([C@@H](C)O)NC(=O)[C@@H](N)CSSC[C@@H](C(=O)O)NC1=O [CTT1-peptide] (H-CTTHWGFTLC-OH; disulfide 1-10)
Liver accumulation of peptide per gram of tissue relative to muscle ([2]; nontumor-bearing normal mice, n = 5, single i.v. tracer dose ~40 μg/mouse, 125I label, compared between CTT1- and CTT2-peptide (Figure 4)): greater liver accumulation
